Reference: patent US20130253202A1, “METHOD OF TREATING HEMATOLOGICAL CANCERS” (Niiki Pharma Inc., priority 2010, published 2013)

Assays:
MV4-11 cells [1] = conditions: Colado et al. 2008, Scatena et al. 2010; cited from earlier work
WSU-DLCL2 cells [2] = conditions: Aref et al. 1999, Levi et al. 2010; cited from earlier work
DoHH2 cells = assay: Anti-proliferation assay (Cell Titer-Glo) in DoHH2 follicular lymphoma cells; type: cell-based, human; conditions: 96 total hours of culture, read-out: IC50 in DoHH2 (inhibition of cell growth)
Description: (§1) To determine the antiproliferative activity of sodium trans-[tetrachlorobis(1H-indazole)ruthenate(III)] in human lymphoma tumor cell lines, anti-proliferation assays were conducted in the DoHH2 (follicular lymphoma), Granta 519 (mantle cell lymphoma), and WSU-DLCL2 (diffuse large B cell lymphoma) cell lines. The DoHH2 Human EBV-negative B Cell Lymphoma cells were seeded with 5,000 cells/well and grown in RPMI1640 medium containing 20% FBS, and 2mM L-Glutamine. The Granta 519 Human Mantle Cell Lymphoma cells were seeded with 10,000 cells/well and grown in DMEM medium containing 10% FBS, and 2 mM L-Glutamine. The WSU-DLCL2 Human B Cell Lymphoma cells were seeded with 5,000 cells/well and grown in RPMI1640 medium containing 10% FBS, and 2mM L-Glutamine. Specifically, the human tumor cells were placed in a 96-well microculture plate at the appropriate density for 96 hours of total growth time. After 24 hours of incubation in a humidified incubator at 37° C. with 5% CO2 and 95% air, serially diluted test agents in growth medium were added to each well. After 96 total hours of culture in a CO2 incubator, the plates were processed with Cell Titer-Glo (Promega #G7571) according to manufacturer's instructions. Luminescence was detected using a Tecan GENios microplate reader. Percent inhibition of cell growth was calculated relative to untreated control wells. […]

MV4-11 cells [3] = assay: Anti-proliferation assay (Cell Titer-Glo) in MV4-11 human leukemia cells; type: cell-based
Description: The human leukemia cell line MV4-11 cells [biphenotypic B myelomonocytic leukemia, lymphoblast morphology] were placed in a 96-well microculture plate (Costar white, flat bottom #3917) in a total volume of 90 μL/well. After 24 hours of incubation in a humidified incubator at 37° C. with 5% CO2 and 95% air, 10 μL of 10X, serially diluted sodium trans-[tetrachlorobis(1H-indazole)ruthenate(III)] in growth medium was added to each well. After 96 total hours of culture in a CO2 incubator, the plated cells and Cell Titer-Glo (Promega #G7571) reagents were brought to room temperature to equilibrate for 30 minutes. 100 μL of Cell Titer-Glo® reagent was added to each well. The plate was shaken for 2 minutes and then left to equilibrate for 10 minutes before reading luminescence on the Tecan GENios microplate reader. Percent inhibition of cell growth was calculated relative to untreated control wells. All tests were performed in duplicate at each concentration level. The IC50 value for the test agent was estimated using Prism 3.03 by curve-fitting the data using the following four parameter-logistic equation: […]

WSU-DLCL2 cells [4] = assay: Anti-proliferation assay (Cell Titer-Glo) in WSU-DLCL2 diffuse large B cell lymphoma cells; type: cell-based, human; conditions: 96 total hours of culture, read-out: IC50 in WSU-DLCL2 (inhibition of cell growth)
Description: as §1

Granta 519 cells = assay: Anti-proliferation assay (Cell Titer-Glo) in Granta 519 mantle cell lymphoma cells; type: cell-based, human; conditions: 96 total hours of culture, read-out: IC50 in Granta 519 (inhibition of cell growth)
Description: as §1

**Q.** With `Nc1ccn([C@@H]2O[C@H](CO)[C@@H](O)[C@@H]2O)c(=O)n1` [Ara-C, cytarabine] as the compound, how does the “resistance of MV4-11 cells to the drug” value (MV4-11 cells [1]) read?
**A.** resistant

**Q.** With `COc1cccc2c1C(=O)c1c(O)c3c(c(O)c1C2=O)C[C@@](O)(C(=O)CO)C[C@@H]3O[C@H]1C[C@H](N)[C@H](O)[C@H](C)O1` [doxorubicin] as the compound, how does the “resistance of WSU-DLCL2 cells to the drug” value (WSU-DLCL2 cells [2]) read?
**A.** resistant

**Q.** What about the “resistance of MV4-11 cells to the drug” value (MV4-11 cells [1]) of the same compound?
**A.** resistant

**Q.** Which “resistance of WSU-DLCL2 cells to the drug” value (WSU-DLCL2 cells [2]) does the source give for `N[C@@H](Cc1ccc(N(CCCl)CCCl)cc1)C(=O)O` [melphalan] here?
**A.** resistant

**Q.** For `[Cl][Ru-]([Cl])([Cl])[Cl].[Na+].c1ccc2[nH]ncc2c1.c1ccc2[nH]ncc2c1` [sodium trans-[tetrachlorobis(1H-indazole)ruthenate(III)]], which IC50 (DoHH2 cells) is on record?
**A.** 7.18 µM

**Q.** And the IC50 (MV4-11 cells [3]; 96 total hours of culture, compound added after 24 hours, Cell Titer-Glo, read-out: IC50 on MV4-11 (inhibition of cell growth))?
**A.** 8.53 µM

**Q.** What about the “inhibition of proliferation of MV4-11 cells (FIG. 1), dose-dependent maximum” value (MV4-11 cells [3]; exposure time 24 hours, % of control) of the same compound?
**A.** up to 100%

**Q.** What about the IC50 (WSU-DLCL2 cells [4]) of the same compound?
**A.** 25 µM

**Q.** And the IC50 (Granta 519 cells)?
**A.** 63.6 µM
